According to PMC9223764, “In Vitro Selection and Characterization of HIV-1 Variants with Increased Resistance to LP-40, Enfuvirtide-Based Lipopeptide Inhibitor” (International Journal of Molecular Sciences, 2022):
Read-outs that look alike come from different tables or passages of the source. Where a SMILES comes first, the peptide text is derived from it. The star is where a group is joined. Palmitoyl = CCCCCCCCCCCCCCCC(=O)*

Legend:
Format in all cases: cell-based
[1] = tested on: T20- and LP40-resistant mutant pseudoviruses of HIV-1 NL4-3; settings: for Largest decrease in susceptibility among LP-40-resistant strains / Largest decrease in susceptibility among T20-resistant strains / Decrease in sensitivity, range over mutants / Decrease in sensitivity, range over strains / Decrease in sensitivity: relative to WT
Description: (§1) To simulate the sequence changes of viral resistance genes under different drug concentration pressures, we constructed the Env genes under different drug concentration pressures in the PCDNA3.1 vector and obtained a series of mutations. […] T20-V 6~12, T20-V 13~14, and T 20-V 15~18 were constructed at concentrations of 200 µM (P21), 400 µM (P24), and 2000 µM (P32), respectively. Similarly, the LP-40 pressure concentrations were 0.3 µM, 8 µM, 20 µM, and 200 µM, respectively, and the constructs were numbered LP40-V 1~5, LP40-V 6~8, LP40-V 9~11, and LP40-V 12~15. Resistance mutations will cause varying levels of damage to the function of the pseudoviral envelope proteins. Here, we explored how serial mutations affect the function of viral envelope proteins. Based on this problem, we performed a single round of quantitative P24-infection experiments, packaging the pseudovirus with a previously constructed series of mutant plasmids. We compared the invasion ability of the HIV-1 wild-type and mutant pseudoviruses toward target cells under the same P24 content (using the invasion capacity of each subtype as 100%).
The frequency of the T20-V8 strain was 1/12. From sequence alignment, except for the L33S, which appeared in all the sequences, the new mutation site of D36G/V38A/N42T was also introduced.
Among them, LP-40-inhibited LP40-V11 reached 3.3 µM. When the concentration of LP-40 rose to 200 µM, I37T disappeared, and L33S/D36G/V38A/N42T/I69V became the main mutation point.
The mutation G20V only appeared in T20-induced drug resistance, and the frequency was low. […] This mutation point N126K appeared in LP-40-induced drug resistance with a high frequency.
(§2) The infectivity of HIV Env mutants and the inhibitory activities of membrane fusion inhibitors on mutants in TZM-bl cells were measured using a single-cycle infection assay as described previously. Briefly, the HIV pseudovirus was packed using an Env-coding plasmid, and pSG3ΔEnv was co-transfected into HEK293T cells. pSG3ΔEnv encodes an Env-defective, luciferase-expressing HIV-1 genome. After the pseudoviruses were harvested and filtrated, the amount of pseudoviruses was fixed via P24 antigen, and their infectivity was determined in TZM-bl cells. In order to measure the inhibitory activities of the inhibitors, inhibitors diluted serially 3-fold were mixed with an equal volume of pseudoviruses, and then 100 µL 1 × 10^5/mL TZM-bl cells were added to the mixture and incubated at 37 °C with 5% CO2 for 48 h. After that, TZM-bl cells were lysed using reporter lysis buffer, and IC50 values were calculated according to luciferase activity measured by luciferase assay reagents and a luminescence counter (Promega, Madison, WI, USA).

[2] = tested on: T20-V18 pseudovirus (HIV-1 NL4-3 Env mutant); settings: for IC50: T20-V18 (Env selected at T20 2000 µM, P32), TZM-bl cells, 48 h, luciferase, mean ± SD, triplicate, repeated three times
Description: as §1, §2

[3] = tested on: T20-V17 pseudovirus (HIV-1 NL4-3 Env mutant); settings: for IC50: T20-V17 (Env selected at T20 2000 µM, P32), TZM-bl cells, 48 h, luciferase, mean ± SD, triplicate, repeated three times
Description: as §1, §2

[4] = tested on: T20-V3 pseudovirus (HIV-1 NL4-3 Env mutant); settings: for IC50: T20-V3 (Env selected at T20 12 µM, P9), TZM-bl cells, 48 h, luciferase, mean ± SD, triplicate, repeated three times
Description: as §1, §2

[5] = tested on: T20-V7 pseudovirus (HIV-1 NL4-3 Env mutant); settings: for IC50: T20-V7 (Env selected at T20 200 µM, P21), TZM-bl cells, 48 h, luciferase, mean ± SD, triplicate, repeated three times
Description: as §1, §2

[6] = tested on: T20-V15 pseudovirus (HIV-1 NL4-3 Env mutant); settings: for IC50: T20-V15 (Env selected at T20 2000 µM, P32), TZM-bl cells, 48 h, luciferase, mean ± SD, triplicate, repeated three times
Description: as §1, §2

[7] = tested on: LP40-V8 pseudovirus (HIV-1 NL4-3 Env mutant); settings: for IC50: LP40-V8 (Env selected at LP-40 8 µM), TZM-bl cells, 48 h, luciferase, mean ± SD, triplicate, repeated three times
Description: as §1, §2

[8] = tested on: T20-V13 pseudovirus (HIV-1 NL4-3 Env mutant); settings: for IC50: T20-V13 (Env selected at T20 400 µM, P24), TZM-bl cells, 48 h, luciferase, mean ± SD, triplicate, repeated three times
Description: as §1, §2

[9] = tested on: T20-V6 pseudovirus (HIV-1 NL4-3 Env mutant); settings: for IC50: T20-V6 (Env selected at T20 200 µM, P21), TZM-bl cells, 48 h, luciferase, mean ± SD, triplicate, repeated three times
Description: as §1, §2

[10] = tested on: T20-V10 pseudovirus (HIV-1 NL4-3 Env mutant); settings: for IC50: T20-V10 (Env selected at T20 200 µM, P21), TZM-bl cells, 48 h, luciferase, mean ± SD, triplicate, repeated three times
Description: as §1, §2

[11] = tested on: T20-V4 pseudovirus (HIV-1 NL4-3 Env mutant); settings: for IC50: T20-V4 (Env selected at T20 12 µM, P9), TZM-bl cells, 48 h, luciferase, mean ± SD, triplicate, repeated three times
Description: as §1, §2

[12] = tested on: T20-V14 pseudovirus (HIV-1 NL4-3 Env mutant); settings: for IC50: T20-V14 (Env selected at T20 400 µM, P24), TZM-bl cells, 48 h, luciferase, mean ± SD, triplicate, repeated three times
Description: as §1, §2

[13] = tested on: LP40-V13 pseudovirus (HIV-1 NL4-3 Env mutant); settings: for IC50: LP40-V13 (Env selected at LP-40 200 µM), TZM-bl cells, 48 h, luciferase, mean ± SD, triplicate, repeated three times
Description: as §1, §2

[14] = six point-mutant pseudoviruses L33S, I37T, V38A, V38T, N42T, N43S
[15] = six point-mutant pseudoviruses L33S, I37T, V38A, V38T, N42T, N43S, read-out: IC50, range over mutants

Compound | Largest decrease in susceptibility among LP-40-resistant strains [1] | Largest decrease in susceptibility among T20-resistant strains [1] | Decrease in sensitivity, range over mutants [1, 14] | IC50 [1, 15] [µM] | IC50 [2] [µM] | IC50 [3] [µM] | IC50 [4] [µM] | IC50 [5] [µM] | IC50 [6] [µM] | IC50 [7] [µM] | IC50 [8] [µM] | IC50 [9] [µM] | IC50 [10] [µM] | IC50 [11] [µM] | IC50 [12] [µM] | IC50 [13] [µM] | also measured
Enfuvirtide | 107 fold | up to 112 fold | 6–51 fold | 0.41 to 3.4 | 6.15 ± 0.475 | 2.89 ± 0.882 | 0.0789 ± 0.0121 | 2.81 ± 0.458 | 2.09 ± 0.248 | 1.15 ± 0.137 | 4.01 ± 0.571 | 3.85 ± 0.516 | 3.34 ± 0.433 | 0.0531 ± 0.0149 | 4.43 ± 0.967 | 5.17 ± 2.46 | Decrease in sensitivity, range over strains ([1]; strains induced at T20 2000 µM): 32- to 112 fold; Decrease in sensitivity ([1]; viral strains induced at T20 200 µM): more than 50 fold; IC50 ([1]; viral strains induced at T20 200 µM, read-out: IC50, range over strains): 2.8 to 5.3 µM; Decrease in sensitivity, range over strains ([1]; virus strain induced at T20 12 µM): one- to two
CCCCCCCCCCCCCCCC(=O)NCCCC[C@H](NC(=O)[C@H](CC(=O)O)NC(=O)[C@H](CC(C)C)NC(=O)[C@H](CCC(=O)O)NC(=O)[C@H](CC(C)C)NC(=O)[C@H](CC(C)C)NC(=O)[C@H](CCC(=O)O)NC(=O)[C@H](CCC(N)=O)NC(=O)[C@H](CCC(=O)O)NC(=O)[C@H](CC(N)=O)NC(=O)[C@H](CCCCN)NC(=O)[C@H](CCC(=O)O)NC(=O)[C@H](CCC(N)=O)NC(=O)[C@H](CCC(N)=O)NC(=O)[C@H](CC(N)=O)NC(=O)[C@H](CCC(N)=O)NC(=O)[C@H](CO)NC(=O)[C@H](CCC(=O)O)NC(=O)[C@H](CCC(=O)O)NC(=O)[C@@H](NC(=O)[C@H](CC(C)C)NC(=O)[C@H](CO)NC(=O)[C@H](Cc1c[nH]cn1)NC(=O)[C@@H](NC(=O)[C@H](CC(C)C)NC(=O)[C@H](CO)NC(=O)[C@@H](NC(=O)[C@H](Cc1ccc(O)cc1)NC(C)=O)[C@@H](C)O)[C@@H](C)CC)[C@@H](C)CC)C(N)=O [LP-40] (Ac-YTSLIHSLIEESQNQQEKNEQELLELDK(Palmitoyl)-NH2) | over 227 fold | 227 fold | 6–111 fold | 0.2 to 3.5 | > 6.25 | 5.17 ± 1.02 | 0.0705 ± 0.00856 | 2.73 ± 0.212 | > 6.25 | 2.88 ± 1.07 | 3.19 ± 0.207 | 3.51 ± 0.631 | 6.08 ± 1.17 | 0.0766 ± 0.0197 | 2.9 ± 0.0851 | > 6.25 | Decrease in sensitivity, range over strains ([1]; first group of LP-40-resistant strains (LP40-V1, LP40-V2)): 1.5–12.6 fold; Decrease in sensitivity ([1]; strains induced at LP-40 200 µM): over 227 fold; Decrease in sensitivity ([1]; viral strains induced at LP-40 8 µM and 20 µM): more than 92 fold; IC50 ([1]; viral strains induced at LP-40 8 µM and 20 µM, read-out: IC50, range over strains): 2.8 to 3.3 µM; Fold change in IC50 ([2]; T20-V18 relative to WT NL4-3, Table 1): >227.43 fold; Fold change in IC50 ([3]; T20-V17 relative to WT NL4-3, Table 1): 174.12 fold; Fold change in IC50 ([4]; T20-V3 relative to WT NL4-3, Table 1): 2.38 fold; Fold change in IC50 ([5]; T20-V7 relative to WT NL4-3, Table 1): 91.82 fold; Fold change in IC50 ([6]; T20-V15 relative to WT NL4-3, Table 1): >227.43 fold; Fold change in IC50 ([7]; LP40-V8 relative to WT NL4-3, Table 1): 97.17 fold; Fold change in IC50 ([8]; T20-V13 relative to WT NL4-3, Table 1): 107.32 fold; Fold change in IC50 ([9]; T20-V6 relative to WT NL4-3, Table 1): 118.37 fold; Fold change in IC50 ([10]; T20-V10 relative to WT NL4-3, Table 1): 204.88 fold; Fold change in IC50 ([11]; T20-V4 relative to WT NL4-3, Table 1): 2.58 fold; Fold change in IC50 ([12]; T20-V14 relative to WT NL4-3, Table 1): 97.57 fold; Fold change in IC50 ([13]; LP40-V13 relative to WT NL4-3, Table 1): >227.43 fold
